Experimental data taken from US20230002357A1, “7-PYRIMIDINE-2-YL-OXY-INDAZOLE DERIVATIVES AND THEIR USE AS HERBICIDES” (SYNGENTA CROP PROTECTION AG, priority 2019, published 2023).

Key:
Format in all cases: in vivo
Conditions in all cases: 250 g/ha, evaluated after 13 days
[1] = test system: ABUTH; test: Pre-emergence Test, glasshouse, ABUTH
Method: (§1) Seeds of a variety of test species are sown in standard soil in pots Amaranthus retoflexus (AMARE), Echinochloa crus-galli (ECHCG), Setaria faberi (SETFA)). After cultivation for one day (pre-emergence) or after 8 days cultivation (post-emergence) under controlled conditions in a glasshouse (at 24/16° C., day/night; 14 hours light; 65% humidity), the plants are sprayed with an aqueous spray solution derived from the formulation of the technical active ingredient in acetone/water (50:50) solution containing 0.5% Tween™ 20 (polyoxyethelyene sorbitan monolaurate, CAS RN 9005-64-5). Compounds are applied at 250 g/ha unless otherwise stated. The test plants are then grown in a glasshouse under controlled conditions in a glasshouse (at 24/16° C., day/night; 14 hours light; 65% humidity) and watered twice daily. After 13 days for pre- and post-emergence, the test is evaluated for the percentage damage caused to the plant. The biological activities are shown in the following table on a five-point scale (5=81-100%; 4=61-80%; 3=41-60%; 2=21-40%; 1=0-20%).

[2] = test system: Amaranthus retoflexus (AMARE); test: Post-emergence Test, glasshouse, AMARE
Method: as §1

[3] = test system: ABUTH; test: Post-emergence Test, glasshouse, ABUTH
Method: as §1

[4] = test system: IPOHE; test: Post-emergence Test, glasshouse, IPOHE
Method: as §1

[5] = test system: Echinochloa crus-galli (ECHCG); test: Pre-emergence Test, glasshouse, ECHCG
Method: as §1

[6] = test system: Setaria faberi (SETFA); test: Pre-emergence Test, glasshouse, SETFA
Method: as §1

[7] = test system: Echinochloa crus-galli (ECHCG); test: Post-emergence Test, glasshouse, ECHCG
Method: as §1

[8] = test system: Setaria faberi (SETFA); test: Post-emergence Test, glasshouse, SETFA
Method: as §1

[9] = test system: IPOHE; test: Pre-emergence Test, glasshouse, IPOHE
Method: as §1

[10] = test system: Amaranthus retoflexus (AMARE); test: Pre-emergence Test, glasshouse, AMARE
Method: as §1

| Compound | percentage damage caused to the plant, five-point scale, ABUTH [1] | percentage damage caused to the plant, five-point scale, AMARE [2] | percentage damage caused to the plant, five-point scale, ABUTH [3] | percentage damage caused to the plant, five-point scale, IPOHE [4] | percentage damage caused to the plant, five-point scale, ECHCG [5] | percentage damage caused to the plant, five-point scale, SETFA [6] | percentage damage caused to the plant, five-point scale, ECHCG [7] | percentage damage caused to the plant, five-point scale, SETFA [8] | percentage damage caused to the plant, five-point scale, IPOHE [9] | percentage damage caused to the plant, five-point scale, AMARE [10] |
| --- | --- | --- | --- | --- | --- | --- | --- | --- | --- | --- |
| CCCCCn1nc(Cl)c2cccc(Oc3ncc(Cl)cn3)c21 [Compound 1.055] | 1 (1=0-20%) | 4 (4=61-80%) | 3 (3=41-60%) | 2 (2=21-40%) | 4 (4=61-80%) | 4 (4=61-80%) | 3 (3=41-60%) | 3 (3=41-60%) | 1 (1=0-20%) | 4 (4=61-80%) |
| COCCn1nc(Cl)c2cccc(Oc3ncc(Cl)cn3)c21 [Compound 1.034] | 2 (2=21-40%) | 5 (5=81-100%) | 4 (4=61-80%) | 4 (4=61-80%) | 5 (5=81-100%) | 5 (5=81-100%) | 4 (4=61-80%) | 4 (4=61-80%) | 3 (3=41-60%) | 5 (5=81-100%) |
| N#Cc1cc(Cl)cnc1Oc1cccc2cnn(CCCC(F)(F)F)c12 [Compound 1.014] | 1 (1=0-20%) | 4 (4=61-80%) | 4 (4=61-80%) | 2 (2=21-40%) | 4 (4=61-80%) | 4 (4=61-80%) | 2 (2=21-40%) | 3 (3=41-60%) | 1 (1=0-20%) | 4 (4=61-80%) |
| Fc1cnc(Oc2cccc3c(Cl)nn(CCCC(F)(F)F)c23)nc1 [Compound 1.047] | 5 (5=81-100%) | 5 (5=81-100%) | 5 (5=81-100%) | 5 (5=81-100%) | 5 (5=81-100%) | 5 (5=81-100%) | 5 (5=81-100%) | 4 (4=61-80%) | 3 (3=41-60%) | 5 (5=81-100%) |
| FC(F)(F)CCCn1nc(Cl)c2c(Cl)c(Br)cc(Oc3ncc(Cl)cn3)c21 [Compound 1.019] | 1 (1=0-20%) | 4 (4=61-80%) | 1 (1=0-20%) | 1 (1=0-20%) | 1 (1=0-20%) | 1 (1=0-20%) | 2 (2=21-40%) | 2 (2=21-40%) | 1 (1=0-20%) | 1 (1=0-20%) |
| Cc1cnc(Oc2cccc3c(Cl)nn(CCCC(F)(F)F)c23)nc1 [Compound 1.049] | 3 (3=41-60%) | 4 (4=61-80%) | 5 (5=81-100%) | 3 (3=41-60%) | 5 (5=81-100%) | 5 (5=81-100%) | 5 (5=81-100%) | 4 (4=61-80%) | 1 (1=0-20%) | 5 (5=81-100%) |
| FC(F)(F)CCCCn1nc(Cl)c2cccc(Oc3ncc(Cl)cn3)c21 [Compound 1.068] | 2 (2=21-40%) | 5 (5=81-100%) | 4 (4=61-80%) | 2 (2=21-40%) | 4 (4=61-80%) | 5 (5=81-100%) | 3 (3=41-60%) | 3 (3=41-60%) | 2 (2=21-40%) | 5 (5=81-100%) |
| FC(F)CCCn1nc(Cl)c2cccc(Oc3ncc(Cl)cn3)c21 [Compound 1.040] | 4 (4=61-80%) | 5 (5=81-100%) | 4 (4=61-80%) | 5 (5=81-100%) | 5 (5=81-100%) | 5 (5=81-100%) | 5 (5=81-100%) | 4 (4=61-80%) | 2 (2=21-40%) | 5 (5=81-100%) |
| COCCCn1nc(Cl)c2cccc(Oc3ncc(Cl)cn3)c21 [Compound 1.060] | 4 (4=61-80%) | 3 (3=41-60%) | 3 (3=41-60%) | 2 (2=21-40%) | 4 (4=61-80%) | 4 (4=61-80%) | 4 (4=61-80%) | 3 (3=41-60%) | 2 (2=21-40%) | 4 (4=61-80%) |
| N#Cc1cc(Cl)cnc1Oc1cccc2c(Cl)nn(CCCC(F)(F)F)c12 [Compound 1.008] | 2 (2=21-40%) | 5 (5=81-100%) | 4 (4=61-80%) | 2 (2=21-40%) | 4 (4=61-80%) | 4 (4=61-80%) | 4 (4=61-80%) | 4 (4=61-80%) | 1 (1=0-20%) | 4 (4=61-80%) |
| CC(C)=CCn1nc(Cl)c2cccc(Oc3ncc(Cl)cn3)c21 [Compound 1.067] | 2 (2=21-40%) | 4 (4=61-80%) | 3 (3=41-60%) | 2 (2=21-40%) | 3 (3=41-60%) | 4 (4=61-80%) | 3 (3=41-60%) | 3 (3=41-60%) | 1 (1=0-20%) | 3 (3=41-60%) |
| FC(F)(F)CCCn1nc(Cl)c2cccc(Oc3ncc(Cl)cn3)c21 [Compound 1.005, 3-chloro-7-(5-chloropyrimidin-2-yl)oxy-1-(4,4,4-trifluorobutyl)indazole] | 3 (3=41-60%) | 5 (5=81-100%) | 5 (5=81-100%) | 3 (3=41-60%) | 5 (5=81-100%) | 5 (5=81-100%) | 5 (5=81-100%) | 5 (5=81-100%) | 1 (1=0-20%) | 5 (5=81-100%) |
| Fc1cc(Cl)cnc1Oc1cccc2ccn(CCCC(F)(F)F)c12 [Compound 1.004] | 1 (1=0-20%) | 3 (3=41-60%) | 1 (1=0-20%) | 2 (2=21-40%) | 1 (1=0-20%) | 2 (2=21-40%) | 1 (1=0-20%) | 1 (1=0-20%) | 1 (1=0-20%) | 1 (1=0-20%) |
